One experiment has as its system Italian ryegrass (LOLMU). As to the kind of experiment: post-emergence test, weed control. The format is in vivo, Lolium perenne. multiflorum. Particulars: post-emergent, 28 DAT; for percentage of weed control, LOLMU: height 5-6 cm, rate g ai/ha by row: r25 94, r26 125, r27 188, r28 125, r29 250, r30 94+125, r31 125+125, r32 188+125, r33 94+250, r34 125+250, r35 188+250; for control of Italian rygrass (LOLMU): combination of both. On the procedure: (§1) Test compositions containing the test compounds were diluted with water to provide the appropriate test rate concentrations.
(§2) For post-emergence testing, seeds of each species for each rate of application of each herbicide solution were planted in 7.5 cm×7.5 cm plastic pots filled with potting soil. The seeds were germinated and the resulting plants were allowed to grow in a greenhouse until they reached a growth stage, such as height, suitable for testing. Treatments were applied using compressed air in a track spray chamber at 30 gallons/acre (280 L/ha) using a TeeJet 8001E nozzle at 40 psi (2.76 bars). Pots of post-emergent treated plants were returned to the greenhouse and not watered for 24 hours after treatment. Thereafter they were regularly watered and fertilized for the duration of the test.
(§3) The control of weeds was evaluated in each experimental test at 21 for wheat and 28 days after treatment (DAT) for all species. Data were analyzed using Minitab software at 95% confidence interval. The results, shown as an average of the replications, were compared with results observed in untreated control flats in the same tests. Percent control was determined by a method similar to the 0 to 100 rating system disclosed in “Research Methods in Weed Science,” 2nd ed., B. Truelove, Ed.; Southern Weed Science Society; Auburn University, Auburn, Ala., 1977. The rating system is as follows in Table 1.

The test system of the next experiment is Annual bluegrass (POAAN). As to the kind of experiment: post-emergence test, weed control. Type of experiment: in vivo, Poa annua. Particulars: post-emergent, 28 DAT, height 1-2 cm; rate g ai/ha by row: r7 94, r8 125, r9 188, r10 125, r11 250, r12 94+125, r13 125+125, r14 188+125, r15 94+250, r16 125+250, r17 188+250. On the procedure:
as §1, §2, §3

Experiment [1] concerns Common lambsquarters (CHEAL). Kind of experiment: pre-emergence test, weed control. The format is in vivo, Chenopodium album. Particulars: pre-emergent, 28 DAT; BFL at 125 g/ha, DCI at 125 g/ha, combination of both. In outline:
(§4)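 Visual 0–100 ratings of percent control against untreated flats, averaged across four replicate flats, were taken at 28 days after treatment for all species (21 days for wheat). Treatments went onto freshly seeded, watered soil before emergence at a spray volume of 30 gallons per acre.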

Another experiment has as its system Palmer amaranth (AMAPA). Kind of experiment: pre-emergence test, weed control. Type of experiment: in vivo, Amaranthus palmeri. Particulars: pre-emergent, 28 DAT; for percentage of weed control, AMAPA: (−)-BFL >95% e.e., rate g ai/ha by row: r6 62, r7 125, r8 125, r9 250, r10 445, r11 890, r12 45, r13 90, r14 62+125, r15 125+125, r16 62+250, r17 125+250, r18 62+445, r19 125+445, r20 62+890, r21 125+890, r22 62+45, r23 125+45, r24 62+90, r25 125+90. In outline:
as §4

Another experiment relates to Green foxtail (SETVI). As to the kind of experiment: post-emergence test, weed control. The format is in vivo, Setaria viridis. Particulars: post-emergent, 28 DAT, height 4-5 cm, rate g ai/ha by row: r7 94, r8 125, r9 188, r10 125, r11 250, r12 94+125, r13 125+125, r14 188+125, r15 94+250, r16 125+250, r17 188+250.
The subject of the next experiment is Wild oat (AVEFA). As to the kind of experiment: post-emergence test, weed control. The format is in vivo, Avena fatua. As to conditions: post-emergent, 28 DAT; for percentage of weed control, AVEFA: height 11 cm, rate g ai/ha by row: r25 94, r26 125, r27 188, r28 125, r29 250, r30 94+125, r31 125+125, r32 188+125, r33 94+250, r34 125+250, r35 188+250; for control of wild oats (AVEFA): DCI at 250 g/ha, combination of both. As to the method: as §1, §2, §3

The test system of another experiment is Redrice (ORYSA). As to the kind of experiment: post-emergence test, weed control. Particulars: post-emergent, 28 DAT, height 8 cm, rate g ai/ha by row: r25 94, r26 125, r27 188, r28 125, r29 250, r30 94+125, r31 125+125, r32 188+125, r33 94+250, r34 125+250, r35 188+250. Type of experiment: in vivo. As to the method:
as §1, §2, §3

A further experiment deals with Barnyardgrass (ECHCG). Kind of experiment: post-emergence test, weed control. Particulars: post-emergent, 28 DAT; for percentage of weed control, ECHCG: height 8-9 cm, rate g ai/ha by row: r7 94, r8 125, r9 188, r10 125, r11 250, r12 94+125, r13 125+125, r14 188+125, r15 94+250, r16 125+250, r17 188+250. Type of experiment: in vivo, Echinochloa crus-galli. On the procedure:
as §1
For post-emergence testing, seeds of each species for each rate of application of each herbicide solution were planted in 7.5 cm×7.5 cm plastic pots filled with potting soil. The seeds were germinated and the resulting plants were allowed to grow in a greenhouse until they reached a growth stage, such as height, suitable for testing. […] Pots of post-emergent treated plants were returned to the greenhouse and not watered for 24 hours after treatment. Thereafter they were regularly watered and fertilized for the duration of the test.
The control of weeds was evaluated in each experimental test at 21 for wheat and 28 days after treatment (DAT) for all species. […] The rating system is as follows in Table 1.

The next experiment deals with Silky windgrass (APSEV). As to the kind of experiment: post-emergence test, weed control. Type of experiment: in vivo. Particulars: post-emergent, 28 DAT, height 1-1.5 cm, rate g ai/ha by row: r25 94, r26 125, r27 188, r28 125, r29 250, r30 94+125, r31 125+125, r32 188+125, r33 94+250, r34 125+250, r35 188+250.
[2] abbreviates: BFL at 125 g/ha, DCI at 125 g/ha, combination of both.

As to `CC1(C)CON(Cc2ccc(Cl)cc2Cl)C1=O` [DCI, 2-(2,4-dichlorophenyl)methyl-4,4-dimethyl-3-isoxazolidinone], the results for the “percentage of weed control, LOLMU” value in the experiment with Italian ryegrass (LOLMU) (125 g ai/ha) and in the experiment with Italian ryegrass (LOLMU) (250 g ai/ha) were 0% and 9%, respectively. Also, the “control of Italian rygrass (LOLMU)” value turned out to be 0% with Italian ryegrass (LOLMU) (BFL at 188 g/ha, DCI at 125 g/ha) and 9% in the experiment with Italian ryegrass (LOLMU) (DCI at 250 g/ha, BFL at 125 g/ha). Moreover, in the experiment with Annual bluegrass (POAAN), the “percentage of weed control, POAAN” value is reported as 0%. For the same compound, in experiment [1], the “control of lambsquarters (CHEAL)” value is 24%. The “percentage of weed control, AMAPA” value with Palmer amaranth (AMAPA) (125 g ai/ha) is 94%; with Palmer amaranth (AMAPA) (250 g ai/ha), 99%. Moreover, the “control of Palmer amaranth (AMAPA)” value in the experiment on Palmer amaranth (AMAPA) (setting [2]) worked out at 30%. Moreover, the results for the “percentage of weed control, SETVI” value with Green foxtail (SETVI) (125 g ai/ha) and in the experiment with Green foxtail (SETVI) (250 g ai/ha) were 6% and 5%, respectively. The “percentage of weed control, AVEFA” value turned out to be 60% with Wild oat (AVEFA) (125 g ai/ha) and 61% in the experiment with Wild oat (AVEFA) (250 g ai/ha). Also, the “control of wild oats (AVEFA)” value in the experiment on Wild oat (AVEFA) (BFL at 125 g/ha) and in the experiment on Wild oat (AVEFA) (BFL at 188 g/ha) was 61% in each case. For the same compound, the entries for the “percentage of weed control, ORYSA” value in the experiment on Redrice (ORYSA) (125 g ai/ha) and in the experiment on Redrice (ORYSA) (250 g ai/ha) were 26% and 42%, respectively. Besides, the “percentage of weed control, ECHCG” value with Barnyardgrass (ECHCG) (125 g ai/ha) was determined as 74%; with Barnyardgrass (ECHCG) (250 g ai/ha), 69%. In the experiment on Barnyardgrass (ECHCG) (setting [2]), the “control of barnyardgrass (ECHCG)” value is 74%. Besides, the “percentage of weed control, APSEV” value amounted to 5% in the experiment with Silky windgrass (APSEV) (125 g ai/ha) and 0% in the experiment on Silky windgrass (APSEV) (250 g ai/ha).

The record behind these values is US11412737B2, “Mixtures of beflubutamid or optically enriched forms thereof with a second herbicide” (FMC Corporation, priority 2016, dated 2022).
